test system: DR7-restricted clone; assay: not given; conditions: Strang et al.; cited from earlier work

Row | Compound | Recognition by T cell clone
1 | E6: 42-57: HPV16 E6 peptide, positions 42-57, Strang et al. (QQLLRREVYDFAFRDL; UniProt P03126 42-57, looked up, fragment) | Recognized by DR7-restricted

test system: E7-specific T lymphocyte lines; assay: not given; conditions: Altmann et al.; cited from earlier work

Row | Compound | Recognition by T lymphocyte line or clone from a patient
2 | E7: 69-82: HPV16 E7 peptide, positions 69-82, Altmann et al. (VQSTHVDIRTLEDL; UniProt P03129 69-82, looked up, fragment) | Recognized by clone from a DR4
3 | E7: 5-18: HPV16 E7 peptide, positions 5-18, Altmann et al. (TPTLHEYMLDLQPE; UniProt P03129 5-18, looked up, fragment) | Recognized by line from a DR1
4 | E7: 17-34: HPV16 E7 peptide, positions 17-34, Altmann et al. (PETTDLYCYEQLNDSSEE; UniProt P03129 17-34, looked up, fragment) | Recognized by line from a DR4

test system: CD4+ T lymphocytes; assay: Proliferation assay ([3H]-thymidine incorporation) of PBMCs / cells from patients having bowenoid papulosis; assay type: cell-based, human; conditions: patient, DR 1501, DRB5
Description: A suspension of cells (PBMCs, CD8+ cell-depleted PBMCs, T lymphocytes pre-enriched by a step of culturing in vitro with the peptides selected according to the invention, or cloned T lymphocytes) is cultured for 3 to 5 days in the presence of the selected peptides and, as needed, of suitable presenting cells, such as dendritic cells, autologous or heterologous PBMCs, lymphoblastoid cells such as those obtained after infection with the EBV virus or genetically modified cells. The cell proliferation is measured by incorporation of tritiated thymidine into the DNA of the cells. The peptides selected in accordance with the invention make it possible to reveal, in the initial suspension, the presence of cells specific for these peptides. • as regards the ELISPOT assay:
To verify the stimulation of CD4+ T cell proliferation using immunogenic composition according to the invention, a proliferation assay is performed in vitro.
The cells (PBMCs) extracted from peripheral blood were cultured in 96-well microplates in a proportion of 2×10^5 cells per well, in a final volume of 200 μl of complete medium. The cells were or were not stimulated with 10 μg/ml of a mixture of peptides according to the invention. […] The cells were recovered and the [^3H]-thymidine incorporation was measured in a cellular DNA. […]

Row | Compound | Prolif: peptide recognized, in terms of proliferation, by the CD4+ T lymphocytes
5 | CC[C@H](C)[C@H](N)C(=O)N[C@@H](CCCNC(=N)N)C(=O)NCC(=O)N[C@@H](CCCNC(=N)N)C(=O)N[C@@H](Cc1c[nH]c2ccccc12)C(=O)N[C@H](C(=O)NCC(=O)N[C@@H](CCCNC(=N)N)C(=O)N[C@@H](CS)C(=O)N[C@@H](CCSC)C(=O)N[C@@H](CO)C(=O)N[C@@H](CS)C(=O)N[C@@H](CS)C(=O)N[C@@H](CCCNC(=N)N)C(=O)N[C@@H](CO)C(=O)N[C@@H](CO)C(=O)N[C@@H](CCCNC(=N)N)C(=O)N[C@H](C(=O)N[C@@H](CCCNC(=N)N)C(=O)N[C@@H](CCCNC(=N)N)C(=O)N[C@@H](CCC(=O)O)C(=O)N[C@H](C(=O)N[C@@H](CCC(N)=O)C(=O)N[C@@H](CC(C)C)C(=O)O)[C@@H](C)O)[C@@H](C)O)[C@@H](C)O [E6/10] | weak

test system: cells from patients; assay: not given; conditions: Kadish et al.; cited from earlier work

Row | Compound | Proliferation of cells from patients (CIN or normal), responders/tested
6 | E6: 62-91: HPV16 E6 peptide, positions 62-91, Kadish et al. (RDGNPYAVCDKCLKFYSKISEYRHYCYSLY; UniProt P03126 62-91, looked up, fragment) | 0/30
7 | E6: 122-151: HPV16 E6 peptide, positions 122-151, Kadish et al. (KQRHLDKKQRFHNIRGRWTGRCMSCCRSSR; UniProt P03126 122-151, looked up, fragment) | 19/48
8 | E6: 82-111: HPV16 E6 peptide, positions 82-111, Kadish et al. (EYRHYCYSLYGTTLEQQYNKPLCDLLIRCI; UniProt P03126 82-111, looked up, fragment) | 5/34
9 | E7: 72-97: HPV16 E7 peptide, positions 72-97, Kadish et al. (THVDIRTLEDLLMGTLGIVCPICSQK; UniProt P03129 72-97, looked up, fragment) | 19/48
10 | E6: 1-31: HPV16 E6 peptide, positions 1-31, Kadish et al. (MHQKRTAMFQDPQERPRKLPQLCTELQTTIH; UniProt P03126 1-31, looked up, fragment) | 17/48
11 | E6: 102-131: HPV16 E6 peptide, positions 102-131, Kadish et al. (PLCDLLIRCINCQKPLCPEEKQRHLDKKQR; UniProt P03126 102-131, looked up, fragment) | 14/43

test system: cells in the blood; assay: not given; conditions: Tsukui et al., 140 HPV16+ patients; cited from earlier work

Row | Compound | Secretion of IL2 (activation of cells) by patients, responders/tested
12 | E7: 27-60: HPV16 E7 peptide, positions 27-60, Tsukui et al. (QLNDSSEEEDEIDGPAGQAEPDRAHYNIVTFCCK; UniProt P03129 27-60, looked up, fragment) | 4/140
13 | E7: 1-35: HPV16 E7 peptide, positions 1-35, Tsukui et al. | 3/140
14 | E7: 51-98: HPV16 E7 peptide, positions 51-98, Tsukui et al. (HYNIVTFCCKCDSTLRLCVQSTHVDIRTLEDLLMGTLGIVCPICSQKP; UniProt P03129 51-98, looked up, fragment) | 7/140
15 | E6: 59-112: HPV16 E6 peptide, positions 59-112, Tsukui et al. (IVYRDGNPYAVCDKCLKFYSKISEYRHYCYSLYGTTLEQQYNKPLCDLLIRCIN; UniProt P03126 59-112, looked up, fragment) | 6/140
16 | E6: 1-45: HPV16 E6 peptide, positions 1-45, Tsukui et al. (MHQKRTAMFQDPQERPRKLPQLCTELQTTIHDIILECVYCKQQLL; UniProt P03126 1-45, looked up, fragment) | 0/140
17 | E6: 111-158: HPV16 E6 peptide, positions 111-158, Tsukui et al. (INCQKPLCPEEKQRHLDKKQRFHNIRGRWTGRCMSCCRSSRTRRETQL; UniProt P03126 111-158, looked up, fragment) | 11/140

test system: cells from patients; assay: not given; conditions: De Gruijl et al.; cited from earlier work

Row | Compound | Proliferation of cells from patients infected with HPV, responders/tested
18 | E7: 19-56: HPV16 E7 peptide, positions 19-56, De Gruijl et al. (TTDLYCYEQLNDSSEEEDEIDGPAGQAEPDRAHYNIVT; UniProt P03129 19-56, looked up, fragment) | 10/28
19 | E7: 43-80: HPV16 E7 peptide, positions 43-80, De Gruijl et al. (GQAEPDRAHYNIVTFCCKCDSTLRLCVQSTHVDIRTLE; UniProt P03129 43-80, looked up, fragment) | 10/28
20 | E7: 67-98: HPV16 E7 peptide, positions 67-98, De Gruijl et al. (LCVQSTHVDIRTLEDLLMGTLGIVCPICSQKP; UniProt P03129 67-98, looked up, fragment) | 17/28
21 | E7: 1-32: HPV16 E7 peptide, positions 1-32, De Gruijl et al. | 8/28

same assay, conditions: de Gruijl et al.; cited from earlier work

Row | Compound | Stimulation of the cells of patients, in words
22 | E7: 67-98: HPV16 E7 peptide, positions 67-98, De Gruijl et al. (LCVQSTHVDIRTLEDLLMGTLGIVCPICSQKP; UniProt P03129 67-98, looked up, fragment) | stimulates the cells of a majority of patients

Source: US7488791B2, “Mixture of peptides derived from E6 and/or E7 papillomavirus proteins and uses thereof” (priority 2001, dated 2009)
